Laboratory results as given in patent US20260325481A1, “THERAPY SELECTION AND TREATMENT OF NEURODEGENERATIVE DISORDERS” (Anavex Life Sciences Corp., priority 2022, published 2026).
Read-outs that look alike come from different tables or passages of the source.

Assays:
[1] = system: Cluster 1 (213 genes); test: RNAseq whole blood transcriptomics, WGCNA Cluster 1 and pathway analysis; set-up: species or system human
Description: (§1) In order to gain insights into ANAVEX 2-73 response pathways, during the Phase 2 study, patients' DNA and RNA sequencing were analyzed. Transcriptomic samples of 65 patients enrolled in either High Dose or Mid Dose arms were collected at baseline and at the end of treatment (Week 14). The expression of 14,150 genes was measured. No transformation was applied to the TPM values. Values associated with a with RIN s 4.0 were discarded. The actual dose of ANAVEX 2-73 (blarcamesine) that was given to each patient during the trial was assessed and integrated into the database. To characterize the gene dysregulations, a pathway database was built using an aggregation of public databases including KEGG, Panther, Allen, Brain Atlas, Gene Ontology, and Reactome.
(§2) The genes were clustered together using WGCNA, starting from their correlation of TPM expression values across samples. Seventeen clusters with size ranging from 13 to 11,190 genes were obtained through this gene clusterisation. The TPM expression values of genes in clusters were then aggregated in a single “eigengene” for each cluster. This eigengene served as a representant of the overall dysregulation of the cluster. Secondly, a cluster filtering was performed, wherein patients' arm and dose information were taken into account based on mixed effect models. For each cluster, the eigengene was used as target variable of a linear mixed effect model with 3 covariates: ActualDose, Patient, and timepoint. For each cluster, the contrast ActualDose, i.e. treated vs placebo were evaluated across all timepoints. P-values were obtained with Dunnett's test. Regardless of the cluster and pathway, pathways with less than 4 genes in a cluster were removed, to compensate for the large variability of cluster size and corresponding variability of number of pathways identified in each clusters. The ratio between cluster size and number of pathways was calculated, and top 2 clusters were retained for further Analysis. Cluster 1 contained 213 genes (n1=213) and 37 pathways, and Cluster 2 contained 962 genes (n2=962) and 317 pathways. […] Thirdly, the two retained clusters were characterized and underwent pathway analysis. The characterization and analysis were applied to all the genes of the cluster (whole cluster), and to the genes of the clusters that are known to have biological interactions (reduced cluster). In the whole cluster analysis, overrepresented pathways were identified using EnrichR package with the parameters of Fisher's adjusted p-value p<0.05 (Benjamini-Hochberg adjustment for multiple testing) and minimum pathway size 20. In the reduced cluster analysis, genes that have no interaction with any other genes of the cluster were discarded, resulting in a reduced cluster. Pathway analysis was performed on these reduced clusters. False Discovery Rate with adjustment for multiple testing (Benjamini-Hochberg procedure) was used to characterize pathways' over-representation. Known interactions between the genes of the cluster were assessed using STRING database with the parameters of Edge score >0.150, and no text mining edges. Known interactions were obtained from public databases, such as KEGG, Panther, Allen, Brain Atlas, Gene Ontology, and Reactome.
(§3) Whole Blood Transcriptomics Analysis (RNAseq) of patients with Parkinson's disease with dementia (PDD) was performed for the ANAVEX®2-73-PDD-001 study (FIG. 1) at two timepoints: Baseline and Week 14 (end of trial). All available RNA samples with […] (RNA integrity number, using 130 samples) were analyzed. The expression of 14,150 genes at these two timepoints were analyzed from both placebo and ANAVEX® 2-73 treated patients.
(§4) The above method was performed as illustrated in FIG. 2B. […] Then, the cluster's eigengene3 (one of a set of a genes matrix that tabulates the mRNA or gene expression of the genes across the sample) was used as summary of expression level of the cluster. […]

[2] = system: Cluster 2 (962 genes); test: RNAseq whole blood transcriptomics, WGCNA Cluster 2 and pathway analysis; set-up: species or system human; conditions: for Number of pathways significantly overrepresented in second cluster: among its 317 pathways
Description: as §1, §2, §3, §4

Question: For `CN(C)CC1CCOC1(c1ccccc1)c1ccccc1.Cl` (stereo not drawn) [ANAVEX2-73, tetrahydro-N,N-dimethyl-2,2-diphenyl-3-furanmethanamine hydrochloride], which Overlap [1] is on record?
Answer: 13/273

Question: And the “Number of pathways significantly overrepresented in first cluster” value ([1]; among its 37 pathways)?
Answer: 10 pathways

Question: What about the Overlap ([1]; genes of pathway in Cluster 1/genes in pathway, KEGG 2021, Alzheimer disease) of the same compound?
Answer: 15/369

Question: And the Overlap ([1]; genes of pathway in Cluster 1/genes in pathway, KEGG 2021, Amyotrophic lateral sclerosis)?
Answer: 14/364

Question: What about the Overlap ([1]; genes of pathway in Cluster 1/genes in pathway, KEGG 2021, Diabetic cardiomyopathy) of the same compound?
Answer: 9/203

Question: What about the Overlap ([1]; genes of pathway in Cluster 1/genes in pathway, KEGG 2021, Huntington disease) of the same compound?
Answer: 13/306

Question: What about the Overlap ([1]; genes of pathway in Cluster 1/genes in pathway, KEGG 2021, Non-alcoholic fatty liver disease) of the same compound?
Answer: 8/155

Question: What about the Overlap ([1]; genes of pathway in Cluster 1/genes in pathway, KEGG 2021, Oxidative phosphorylation) of the same compound?
Answer: 8/133

Question: And the Overlap ([1]; genes of pathway in Cluster 1/genes in pathway, KEGG 2021, Parkinson disease)?
Answer: 12/249

Question: And the Overlap ([1]; genes of pathway in Cluster 1/genes in pathway, KEGG 2021, Pathways of neurodegeneration)?
Answer: 15/475

Question: What about the Overlap ([1]; genes of pathway in Cluster 1/genes in pathway, KEGG 2021, Proteasome) of the same compound?
Answer: 4/46

Question: What about the Overlap [2] of the same compound?
Answer: 45/273

Question: What about the “Number of pathways significantly overrepresented in second cluster” value ([2]; listed as ANAVEX 2-73, hydrochloride) of the same compound?
Answer: 15 pathways

Question: What about the “Number of pathways significantly overrepresented in second cluster” value ([2]; listed as ANAVEX® 2-73, hydrochloride) of the same compound?
Answer: 10 pathways

Question: And the Overlap ([2]; genes of pathway in Cluster 2/genes in pathway, KEGG 2021, Alzheimer disease)?
Answer: 47/369

Question: And the Overlap ([2]; genes of pathway in Cluster 2/genes in pathway, KEGG 2021, Amyotrophic lateral sclerosis)?
Answer: 46/364

Question: What about the Overlap ([2]; genes of pathway in Cluster 2/genes in pathway, KEGG 2021, Cardiac muscle contraction) of the same compound?
Answer: 11/87

Question: What about the Overlap ([2]; genes of pathway in Cluster 2/genes in pathway, KEGG 2021, Coronavirus disease) of the same compound?
Answer: 80/232

Question: And the Overlap ([2]; genes of pathway in Cluster 2/genes in pathway, KEGG 2021, Diabetic cardiomyopathy)?
Answer: 36/203

Question: What about the Overlap ([2]; genes of pathway in Cluster 2/genes in pathway, KEGG 2021, Huntington disease) of the same compound?
Answer: 48/306

Question: What about the Overlap ([2]; genes of pathway in Cluster 2/genes in pathway, KEGG 2021, Non-alcoholic fatty liver disease) of the same compound?
Answer: 34/155

Question: What about the Overlap ([2]; genes of pathway in Cluster 2/genes in pathway, KEGG 2021, OProteasome) of the same compound?
Answer: 9/46

Question: And the Overlap ([2]; genes of pathway in Cluster 2/genes in pathway, KEGG 2021, Oxidative phosphorylation)?
Answer: 36/133

Question: And the Overlap ([2]; genes of pathway in Cluster 2/genes in pathway, KEGG 2021, Parkinson disease)?
Answer: 46/249

Question: What about the Overlap ([2]; genes of pathway in Cluster 2/genes in pathway, KEGG 2021, Pathways of neurodegeneration) of the same compound?
Answer: 50/475

Question: And the Overlap ([2]; genes of pathway in Cluster 2/genes in pathway, KEGG 2021, Retrograde endocannabinoid signaling)?
Answer: 24/148

Question: And the Overlap ([2]; genes of pathway in Cluster 2/genes in pathway, KEGG 2021, Ribosome)?
Answer: 96/158

Question: What about the Overlap ([2]; genes of pathway in Cluster 2/genes in pathway, KEGG 2021, Thermogenesis) of the same compound?
Answer: 45/232

Question: What about the Overlap ([2]; genes of term in Cluster 2/genes in term, Allen Brain Atlas, Anterior olfactory nucleus) of the same compound?
Answer: 27/300

Question: And the Overlap ([2]; genes of term in Cluster 2/genes in term, Allen Brain Atlas, Anterior olfactory nucleus, external part)?
Answer: 34/300

Question: What about the Overlap ([2]; genes of term in Cluster 2/genes in term, Allen Brain Atlas, Anterior olfactory nucleus, layer 1) of the same compound?
Answer: 36/300

Question: What about the Overlap ([2]; genes of term in Cluster 2/genes in term, Allen Brain Atlas, Main olfactory bulb) of the same compound?
Answer: 31/300

Question: What about the Overlap ([2]; genes of term in Cluster 2/genes in term, Allen Brain Atlas, Main olfactory bulb, glomerular layer) of the same compound?
Answer: 36/300

Question: And the Overlap ([2]; genes of term in Cluster 2/genes in term, Allen Brain Atlas, Main olfactory bulb, inner plexiform layer)?
Answer: 28/300

Question: What about the Overlap ([2]; genes of term in Cluster 2/genes in term, Allen Brain Atlas, Main olfactory bulb, mitral layer) of the same compound?
Answer: 28/300

Question: What about the Overlap ([2]; genes of term in Cluster 2/genes in term, Allen Brain Atlas, Main olfactory bulb, outer plexiform layer) of the same compound?
Answer: 30/300

Question: What about the Overlap ([2]; genes of term in Cluster 2/genes in term, Allen Brain Atlas, OB olfactory fiber layer) of the same compound?
Answer: 33/300

Question: And the Overlap ([2]; genes of term in Cluster 2/genes in term, Allen Brain Atlas, Olfactory areas)?
Answer: 27/300

Question: What about the Overlap ([2]; genes of term in Cluster 2/genes in term, Allen Brain Atlas, Olfactory bulb, principal part) of the same compound?
Answer: 32/300

Question: And the “Cluster 2 eigengene expression” value ([2]; high oral dose vs placebo)?
Answer: significantly increased

Question: And the “Number of brain areas significantly overrepresented in second cluster” value ([2]; n2=962 genes)?
Answer: 74 brain areas

Question: And the “Number of overrepresented brain areas linked to the olfactory bulb” value ([2]; out of 74)?
Answer: 11 brain areas
